Measured values taken from US6017719A, “Positive and positive/negative cell selection mediated by peptide release” (Nexell Therapeutics, Inc., priority 1995, dated 2000).
Entries after “also recorded” stand apart in the source; their conditions may differ. Ends that are not written are not given here.

Assays:
561 antibody [1] = experiment: Chemical reagents as enhancers of peptide-dependent release of CD34+ cells from the 561 antibody (FACS assay); type: cell-based
Protocol: The ability of chemical reagents to enhance peptide-dependant release of captured CD34+ cells from the 561 antibody was examined. […] Since long-term viability of the low pH-released cells was not known, conditions which could alter the pH to a more neutral value (about pH5-7) were desirable.
Reagents which were known to affect electrostatic and hydrogen bonding interactions of proteins were tested in addition to excluded-volume polymers. Included in these studies were sodium chloride, sodium acetate, magnesium chloride, calcium chloride, polyethylene glycol (PEG), ficoll, sodium succinate, sodium citrate, protamine sulphate, spermine, and polybrene.

561 antibody [2] = experiment: KG1a or tHL60 cell-based FACS assay: release of prebound 561 antibody; type: binding
Text: Five peptides representing hexapeptides selected from biopannings were synthesized and tested for their ability to serve as release agents in the KG1a or tHL60 cell-based FACS assay.
The peptides (see Table 27 below) were synthesized by Research Genetics and tested without purification. The 9069 antibody was used as a positive control and released with the 9069N peptide (Ac-Q Q G W F P-K D) (SEQ ID NO:9). This control served to test for the KG1a cells and the goat-anti-mouse FITC secondary detection antibody. Hexapeptide sequences identified for the 561 antibody were tested for their ability to displace prebound 561 antibody.
HPLC-purified peptides 561C and D were tested in the cell-based KG1a FACS assay.
Functional release activity of purified 561D peptide at pH 4 and 6 was tested.
Functional release activity of purified 561C and 561D peptides at pH 4, 5, 6, 7, 8, and 9 was tested.
Functional release activity of crude 561A,B,C,D, M, P, Q, CDR2H, CDR2L, CDR3H, CDR3L, 34B, 34C,34D,34E and 34F peptides adjusted to pH 7 and pH unadjusted (~pH3.8-4.3) was tested.

anti-CD34 antibody, 9069 = experiment: KG1a cell FACS assay: release by peptides of 9069 antibody prebound to cells; type: binding, mouse; details: peptide added to KG1a cells with prebound 9069; 10^5 to 10^6 molar excess, 30 min, room temperature
Protocol: These experiments were performed following a similar procedure to the binding experiments except that the anti-CD34 antibody, 9069, was incubated with KG1a cells first, followed by addition of peptide. The experimental outline is schematically shown below:
KG1a Cell Assay to Test for Release by Peptides of 9069 Antibody Bound to Cells.
Anti-CD34 antibody, 9069 (0.i microgram) was incubated with KG1a cells (10^6) for 30 minutes at room temperature (about 22° C.). Molar excesses of 10^5 to 10^6 times the amount of peptide to antibody were tested for the ability to displace the prebound antibody. Peptides were incubated with the antibody-cell complexes for 30 minutes at room temperature (approximately 22° C.). Remaining bound antibody was detected using the FITC-goat anti-mouse IgG reagent described in Example 3.
Analysis of the variant peptide, 9069Q2, was done in parallel with the 9069N peptide. This analysis provides quality control information on reagents including the antibody, 9069, and the cells, KG1a. FACScan assays included a negative control of KG1a cells alone and positive control samples of KG1a cells with the 9069 antibody bound and detected with a secondary antibody, goat-anti-mouse IgG-FITC.

CD34 cells = experiment: Stem cell selection with 9069 antibody, sheep-anti-mouse beads and releasing agent; type: cell-based, human; details: chymopapain release
CD34+ cells = experiment: CD34+ cell isolation on automated cell separation apparatus, then culture with cytokines; type: cell-based, human
Protocol: CD34+ cells were also isolated from human mobilized peripheral blood using the automated cell separation apparatus described in U.S. Pat. No. 5,536,475 and the method essentially as described in WO 95/24969 Both U.S. Pat. No. 5,536,475 and WO 95/24969 are herein expressly incorporated by reference. Chymopapain was used as the control releasing agent, and 25 mg of the peptide 9069N (Table 11) was used as the test releasing agent.

[3] = Solubilization of peptides in DPBS plus 1% HSA; type: physicochemical
Text: 9079A-G peptides were solubilized in Dulbecco's phosphate buffered saline (DPBS) plus 1% HSA.

[4] = crude peptide, pH unadjusted (around pH 3.8-4.3; low pH ~4)
[5] = Table 7, mobilized peripheral blood (5.86% CD34 start)
[6] = Table 10, mobilized peripheral blood (0.68% CD34 start)

With `[Cl-].[Cl-].[Mg+2]` [magnesium chlordie, magnesium chloride] the “enhancement of peptide mediated release of CD34+ selected cells” value (561 antibody [1]) was “Less dramatic results”.
In the case of `CC(=O)[O-].[Na+]` [sodium acetate], the “enhancement of peptide mediated release of CD34+ selected cells” value (561 antibody [1]) is reported as “significant activity as an enhancement reagent”.
In the case of A C K W C R (ACKWCR) [Peptide 561M], the “release activity on prebound 561 antibody” value (561 antibody [2]; crude peptide, pH 7) is reported as “none of these peptides showed release activity; also recorded: did not show release activity”, the “release activity on prebound 561 antibody” value (561 antibody [2]; [4]) is reported as “showed functional release activity; also recorded: showed significant release activity” and the “release of 561 antibody prebound to KG1a or tHL60 cells (in words)” value (561 antibody [2]; crude peptides, pH not stated) is reported as “able to release 561 antibody prebound to KG1a or tHL60 cells”. For the same compound, the “release activity on prebound 561 antibody” value (561 antibody [2]; pH 6) was “did not show release activity”.
For “A D G A-L I S Q V S-Q A K D (ADGALISQVSQAKD) [Peptide 9069C]”, the “% Inhibition of Binding” value (anti-CD34 antibody, 9069) was 32%.
In the case of “A I Y P G D G D T R Y T Q K F V V (AIYPGDGDTRYTQKFVV) [Peptide 561CDR2H]”, the “release activity on prebound 561 antibody” value (561 antibody [2]; crude peptide, pH 7) is reported as “none of these peptides showed release activity; also recorded: did not show release activity”, the “release activity on prebound 561 antibody” value (561 antibody [2]; [4]) is reported as “showed functional release activity; also recorded: showed significant release activity” and the “release activity on prebound 561 antibody” value (561 antibody [2]; pH 6) is reported as “did not show release activity”.
In the case of Chymopapain, the “% CD34 CELLS Negative Fraction” value (CD34 cells; [5]) is reported as 2.5%, the “% CD34 CELLS Positive Fraction” value (CD34 cells; [5]) is reported as 94% and the “% Capture” value (CD34 cells; [5]) is reported as 62%. For the same compound, the “% CD34 CELLS Negative Fraction” value (CD34 cells; Table 8, mobilized peripheral blood (1.05% CD34 start)) was 0.16%, the “% CD34 CELLS Negative Fraction” value (CD34 cells; Table 9, bone marrow (3.66% CD34 start)) was 0.34% and the “% CD34 CELLS Negative Fraction” value (CD34 cells; [6]) was 0.12%. The “% Yield” value (CD34 cells; [6]) was 68%, the “purity of the positively selected CD34+ cells” value (CD34+ cells; mobilized peripheral blood, 25 mg peptide 9069N or chymopapain control) was “greater than 90%” and the “expansion in cell number” value (CD34+ cells; released CD34+ cells of first experiment, culture with cytokines for 12 days) was 68 fold.
With IQEFGVKD [Peptide 9079F, IQEFGV--KD] the solubility [3] was “solubilized”.
In the case of “KDVYSLWPKD [Peptide 9079H, KD--VYSLWP--KD]”, the solubility [3] is reported as “solubilized”.
With NLQGEFKD [Peptide 9079D, NLQGEF--KD] the solubility [3] was “solubilized”.
With PGSPLGKD [Peptide 9079A, PGSPLG--KD] the solubility [3] was “solubilized”.
With QYTQPKD [Peptide 9079C, QYTQPK--D] the solubility [3] was “solubilized”.
In the case of RSFYYRD [Peptide 9079E, RSFYYR--D], the solubility [3] is reported as “insoluble”.
With YSRLGFKD [Peptide 9079B, YSRLGF--KD] the solubility [3] was “solubilized”.
